Source: ChEMBL document CHEMBL1201862, “PubChem BioAssay data set” (2004)
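48-hour exposure; five concentrations; linearly interpolated endpoints. GI50: concentration for 50% inhibition of growth.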 The source made the active and inactive calls. No stated cut-off is given here; in the data, active = GI50 up to about 1.1 µM and inactive = higher.

Columns and labels:
Test in all cases: NCI-60 cell line screen, 48 h
[1] = tested on: 786-0
[2] = tested on: A498
[3] = tested on: A549
[4] = tested on: ACHN
[5] = tested on: BT-549
[6] = tested on: CAKI-1
[7] = tested on: CCRF-CEM
[8] = tested on: COLO 205
[9] = tested on: DU-145
[10] = tested on: EKVX
[11] = tested on: HCC 2998
[12] = tested on: HCT-116
[13] = tested on: HCT-15
[14] = tested on: HL-60
[15] = tested on: HOP-62
[16] = tested on: HOP-92
[17] = tested on: HT-29
[18] = tested on: Hs-578T
[19] = tested on: IGROV-1
[20] = tested on: K562
[21] = tested on: KM12
[22] = tested on: LOX IMVI
[23] = tested on: M14
[24] = tested on: MCF7
[25] = tested on: MDA-MB-231
[26] = tested on: MDA-MB-435
[27] = tested on: MDA-N
[28] = tested on: MOLT-4
[29] = tested on: Malme-3M
[30] = tested on: NCI-H226
[31] = tested on: NCI-H23
[32] = tested on: NCI-H460
[33] = tested on: NCI-H522
[34] = tested on: NCI/ADR-RES
[35] = tested on: OVCAR-3
[36] = tested on: OVCAR-4
[37] = tested on: OVCAR-5
[38] = tested on: OVCAR-8
[39] = tested on: PC-3
[40] = tested on: RPMI-8226
[41] = tested on: SF-268
[42] = tested on: SF-295
[43] = tested on: SF-539
[44] = tested on: SK-MEL-28
[45] = tested on: SK-MEL-2
[46] = tested on: SK-MEL-5
[47] = tested on: SK-OV-3
[48] = tested on: SN12C
[49] = tested on: SNB-19
[50] = tested on: SNB-75
[51] = tested on: SR
[52] = tested on: SW-620
[53] = tested on: T47D
[54] = tested on: TK-10
[55] = tested on: U-251
[56] = tested on: UACC-257
[57] = tested on: UACC-62
[58] = tested on: UO-31
[59] = tested on: RXF 393

Measured: GI50

C/C(=N\NC(=S)Nc1ccc(Cl)cc1)c1nc2cccnc2[nH]1
inactive: [1] 2.17 µM | [2] 6.21 µM | [3] 2.38 µM | [5] 1.76 µM | [6] 1.53 µM | [8] 4.07 µM | [9] 1.97 µM | [11] 1.3 µM | [12] 1.53 µM | [15] 1.52 µM | [16] 1.27 µM | [17] 2.56 µM | [18] 15.1 µM | [19] 3.08 µM | [20] 3.33 µM | [21] 1.23 µM | [22] 1.23 µM | [23] 1.48 µM | [24] 2.69 µM | [25] 6.04 µM | [26] 3.44 µM | [27] 5.13 µM | [29] 3.35 µM | [30] 1.77 µM | [31] 1.89 µM | [33] 6.89 µM | [34] 2.65 µM | [36] 5.64 µM | [37] 2.29 µM | [38] 1.45 µM | [39] 1.39 µM | [40] 3.27 µM | [42] 2.15 µM | [44] 1.51 µM | [45] 10.5 µM | [46] 1.67 µM | [47] 4.31 µM | [48] 2.81 µM | [49] 2.08 µM | [50] 4.91 µM | [52] 4.93 µM | [53] 3.37 µM | [56] 2.28 µM | [57] 1.87 µM
2.39 µM: [13]
active: [4] 0.822 µM | [7] 0.492 µM | [10] 0.608 µM | [14] 0.818 µM | [28] 0.687 µM | [32] 0.665 µM | [35] 0.352 µM | [41] 0.438 µM | [43] 0.938 µM | [51] 0.92 µM | [54] 0.309 µM | [55] 0.773 µM | [58] 0.713 µM

c1csc(-c2ccc(-c3ccc(-c4cccs4)s3)s2)c1
inactive: [1] > 100 µM | [2] > 100 µM | [3] > 100 µM | [4] > 100 µM | [5] > 100 µM | [6] > 100 µM | [8] > 100 µM | [9] > 100 µM | [10] > 100 µM | [11] > 100 µM | [12] > 100 µM | [14] > 100 µM | [15] > 100 µM | [17] > 100 µM | [18] > 100 µM | [19] > 100 µM | [21] > 100 µM | [22] > 100 µM | [23] > 100 µM | [24] > 100 µM | [25] > 100 µM | [26] > 100 µM | [27] > 100 µM | [28] > 100 µM | [29] > 100 µM | [30] > 100 µM | [31] > 100 µM | [32] > 100 µM | [33] > 100 µM | [34] > 100 µM | [35] > 100 µM | [36] > 100 µM | [37] > 100 µM | [38] > 100 µM | [39] > 100 µM | [40] > 100 µM | [59] > 100 µM | [41] > 100 µM | [42] > 100 µM | [43] > 100 µM | [44] > 100 µM | [45] > 100 µM | [46] > 100 µM | [47] > 100 µM | [48] > 100 µM | [49] > 100 µM | [50] > 100 µM | [51] > 100 µM | [52] > 100 µM | [53] > 100 µM | [54] > 100 µM | [55] > 100 µM | [56] > 100 µM | [57] > 100 µM | [58] > 100 µM
> 100 µM: [13]

CC(=O)Oc1ccc2cc(-c3ccc(OC(C)=O)c(OC(C)=O)c3)c(=O)oc2c1
> 100 µM: [13]
inactive: [1] > 100 µM | [2] 34.4 µM | [3] 73.6 µM | [4] > 100 µM | [5] 42.3 µM | [7] 42.1 µM | [8] > 100 µM | [9] 41.6 µM | [10] 30.4 µM | [11] > 100 µM | [12] 60.3 µM | [14] 30.5 µM | [15] > 100 µM | [16] 43.4 µM | [17] > 100 µM | [18] 54.2 µM | [20] 49.8 µM | [21] 32.8 µM | [22] > 100 µM | [23] 74.8 µM | [24] > 100 µM | [25] > 100 µM | [26] 61.5 µM | [27] > 100 µM | [28] > 100 µM | [29] > 100 µM | [30] > 100 µM | [31] > 100 µM | [32] 85.9 µM | [33] 44.4 µM | [34] 40.7 µM | [35] 18.4 µM | [36] 27.1 µM | [37] > 100 µM | [38] > 100 µM | [39] 84.5 µM | [40] 39.3 µM | [41] 63.2 µM | [42] 52.8 µM | [43] > 100 µM | [44] 81.7 µM | [45] > 100 µM | [48] > 100 µM | [49] > 100 µM | [51] 87.7 µM | [52] > 100 µM | [53] 24.5 µM | [54] 26.5 µM | [55] 67.1 µM | [56] 97.9 µM | [58] 56 µM
